# Conditions: buffer; pH 7.4; 200.0 µM
row,SMILES,solubility kinetic
1,COc1ccccc1CC(=O)NC12CC3CC(CC(C3)C1)C2,7.8 µg/mL
2,Cc1ccc(NC(=O)CN(C)C(=O)CSc2ccccc2F)cc1,5.2 µg/mL
3,CC(=O)Oc1ccc(C(=O)Nc2cc(C)on2)cc1,38.1 µg/mL
4,CC(c1ccccc1)n1c(CO)nc2ccccc21 (stereo not given),35.2 µg/mL
5,CCNC(=S)N(Cc1cc2c(C)ccc(C)c2[nH]c1=O)C1CCCC1,< 0.3 µg/mL
6,O=C(Nc1ccc(Cl)c([N+](=O)[O-])c1)c1ccco1,10.6 µg/mL
7,NC(=O)C1CCN(C(=O)Cc2ccsc2)CC1,> 37.8 µg/mL
8,Nc1cc(C(=O)OCC(=O)Nc2cccc(S(=O)(=O)N3CCOCC3)c2)ccc1Cl,24.4 µg/mL
9,Cc1ccccc1-c1nnc(SCCC(=O)N2CCOCC2)o1,> 50 µg/mL
10,CC(=O)N1CCc2ccccc2C1CC(=O)O (stereo not given),32.7 µg/mL
11,COCCNC(=O)C1Cc2c(ccc3ccccc23)O1 (stereo not given),> 40.7 µg/mL
12,Cc1ccc2nc(C)c3c(c2c1)N(c1ccccc1)CC3,> 41.2 µg/mL
13,Cc1ccc(Nc2ncnc(-n3cccc3)n2)cc1Cl,< 0.1 µg/mL
14,Cc1nn(CC(=O)OCC(=O)NCCc2ccc(F)cc2)c(C)c1[N+](=O)[O-],> 56.8 µg/mL
15,CSc1ccc(Cl)c(C(=O)Nc2ccc(Cl)cn2)c1,0.5 µg/mL
16,CSc1cccc(NC(=O)CCCNC(=O)c2ccc(Cl)cc2)c1,4.5 µg/mL
17,O=C(Nc1ccc(F)cc1)c1cccnc1,> 32.4 µg/mL
18,O/N=C\c1cnc(N2CCN(c3ccccc3)CC2)s1,2.9 µg/mL
19,CCOC(=O)c1c(CC(C)C)csc1NC(=O)c1ccccc1C(=O)O,54.1 µg/mL
20,C=CCNC(=S)N1CCc2c([nH]c3ccccc23)C1C (stereo not given),27.7 µg/mL

row,SMILES,solubility kinetic
1,COc1cccc(NC(=O)c2ccc3c(c2)OCO3)c1,> 40.7 µg/mL
2,COc1cc2c(cc1OC)C(c1cccc(Br)c1)NC(=O)C2 (stereo not given),43 µg/mL
3,Cc1c(CCOC(=O)c2ccc(Cl)cc2Cl)sc[n+]1CC(=O)c1ccccc1.[Br-],> 77.3 µg/mL
4,O=C(Nc1cccc(Cl)c1)c1cc(F)cc2c1OCOC2,< 0.7 µg/mL
5,N#CC1=C(N)Oc2c(c(=O)sc3ccccc23)C1c1ccncc1 (stereo not given),3.6 µg/mL
6,CN1CCCN(C(=O)c2c(F)cccc2Cl)CC1,> 40.6 µg/mL
7,CCC(=O)c1ccc(OC(=O)c2cnccn2)cc1,> 38.4 µg/mL
8,Cc1nc2ccccc2c(=O)n1NC(=O)c1cccc(Cl)c1,> 47.1 µg/mL
9,COc1ccc(/C=C/C(=O)OCC(=O)NCc2ccccc2Cl)cc1OC,8.3 µg/mL
10,CC(C)(C)NC(=O)COC(=O)c1cc(Cl)ccc1[N+](=O)[O-],> 47.2 µg/mL
11,CC(=O)Nc1ccc(C(=O)COC(=O)c2ccco2)c(F)c1,> 45.8 µg/mL
12,O=C(NCCCNC(=O)c1ccccc1F)c1ccco1,43.4 µg/mL
13,C=CCNC(=O)C1CCN(S(=O)(=O)c2cccs2)CC1,> 47.2 µg/mL
14,CSc1ccc(Cl)c(C(=O)Nc2nccs2)c1,2.8 µg/mL
15,CCOc1ccc2nc(NC(=O)CN3CCN(CC)CC3)sc2c1,47.6 µg/mL
16,O=C(c1ccccc1)C1CCN(C(=O)c2cccs2)CC1,38.9 µg/mL
17,COc1cc(/C=C/C(=O)OCC(=O)c2ccc[nH]2)cc(OC)c1OC,9.4 µg/mL
18,O=C(COC(=O)c1ccc(F)c(S(=O)(=O)N2CCOCC2)c1)c1ccccc1,6.3 µg/mL
19,CN(C(=O)c1ccc2c(c1)OCO2)C1CCS(=O)(=O)C1 (stereo not given),> 44.6 µg/mL
20,O=C(COC(=O)c1ccc(F)cc1)NCCCc1ccccc1,5.9 µg/mL

row,SMILES,solubility kinetic
1,CCOc1ncccc1C(=O)Nc1ccc(F)c(Cl)c1,1 µg/mL
2,Cc1ccc(OCc2ccc(C(=O)Nc3cc(C)on3)o2)c([N+](=O)[O-])c1,1.4 µg/mL
3,CCCC(C)NC(=O)COC(=O)c1cccc(NS(C)(=O)=O)c1 (stereo not given),50.7 µg/mL
4,CC1(CO)COC(c2ccccc2)=N1 (stereo not given),> 28.7 µg/mL
5,O=c1cc(C(F)(F)F)nc(SC/C=C/c2ccccc2)[nH]1,> 46.8 µg/mL
6,O=c1c2cc(Br)ccc2[nH]c(=S)n1Cc1ccccc1,< 0.4 µg/mL
7,O=C(O/N=C(/c1ccccc1)c1ccncc1)c1cccc(F)c1,2.1 µg/mL
8,CN(CC(=O)Nc1ccc(F)cc1)C(=O)CN1C(=O)NC2(CCCCC2)C1=O,0.7 µg/mL
9,COC(=O)c1ccccc1NC(=S)N(C)C,34.2 µg/mL
10,N=C1SC(CC(=O)Nc2ccccc2[N+](=O)[O-])C(=O)N1c1ccccc1 (stereo not given),0.2 µg/mL
11,CCOc1ccccc1NC(=O)COC(=O)C1CC1,> 39.5 µg/mL
12,Cc1cc(C)c(-c2cc(C)nc3ncnn23)c(C)c1,> 37.8 µg/mL
13,Cc1c(-c2nc3ccccc3[nH]2)cnn1C,> 31.8 µg/mL
14,O=C(COc1ccc2ccccc2c1)Nc1cccnc1Cl,< 0.3 µg/mL
15,O=S(=O)(NCc1cccs1)c1ccc(Br)cc1,11.6 µg/mL
16,CCOc1cc(/C=C(\C#N)C(=O)Nc2ccccn2)ccc1O,> 46.4 µg/mL
17,O/N=C\c1cccn1-c1nccs1,> 29 µg/mL
18,Cc1cc(C(=O)NC2CCCCC2C)c2ccccc2n1 (stereo not given),> 42.4 µg/mL
19,O=C(NC1CCN(Cc2ccc(F)cc2)CC1)c1ccccc1,40.7 µg/mL
20,O=C(Nc1ccc(Cl)cc1)Nc1ccc2c(c1)OCO2,0.4 µg/mL

# From PubChem BioAssay AID1996
